Measured values taken from patent US20220401514A1, “ANTIMICROBIAL, BACTERIOPHAGE-DERIVED POLYPEPTIDES AND THEIR USE AGAINST GRAM-NEGATIVE AND ACID-FAST BACTERIA” (CONTRAFECT CORPORATION, priority 2019, published 2022).

Columns and labels:
[1] = test system: P. aeruginosa strain PAO1; assay: MIC against PAO1 in Mueller-Hinton broth with 50% human plasma or human serum; format: cell-based, Pseudomonas aeruginosa
[2] = test system: S. maltophilia; assay: MIC against S. maltophilia isolates; format: cell-based, Stenotrophomonas maltophilia
Method in brief: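 MIC in μg/mL for Chp peptides across several S. maltophilia isolates, n denoting the number of isolates tested.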

[3] = test system: mature biofilms formed by P. aeruginosa strain ATCC 17647; assay: Minimal Biofilm Eradicating Concentration (MBEC), Calgary Biofilm Device, crystal violet; format: cell-based, Pseudomonas aeruginosa
Description: Biofilms are then washed and treated with e.g., a 2-fold dilution series of the lysin in TSBg at e.g., 37° C. for 24 hours. After treatment, wells are washed, air-dried at e.g., 37° C. and stained with e.g., 0.05% crystal violet for 10 minutes.
Determination of Minimal Biofilm Eradicating Concentrations (MBEC). […] Biofilms were washed and treated with a 2-fold dilution series of each peptide in TSBg at 37° C. for 16 hours. […] The OD600 of extracted crystal violet was determined.

[4] = test system: P. aeruginosa strain CFS-1292; assay: Checkerboard assay (FICI) with antibiotics, P. aeruginosa; format: cell-based, Pseudomonas aeruginosa; set-up: key to FIC Index: FICI = FIC A + FIC B; each FIC = MIC in combination / MIC alone; conditions: for FICI: CAA + […] human serum; for Chp peptide MIC in checkerboard: P. aeruginosa CFS-1292, CAA + […] human serum
Method in brief: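 Antibiotic diluted 2-fold along one plate axis against Chp peptide; bacteria added at 1×10^5 […] in CAA, optionally with human serum or pulmonary surfactant.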

[5] = test system: Acinetobacter baumannii strain 30; assay: Checkerboard assay (FICI) with antibiotics, A. baumannii; format: cell-based; set-up: key to FIC Index: FICI = FIC A + FIC B; ≤0.5 synergy, ≥2 antagonism
[6] = S. maltophilia isolates (n per peptide in table)

MRLKMARRRYRLPRRRSRRLFSRTALRMHPRNRLRRIMRGGIRF [Chp2]
MIC [1]: 2 µg/mL
Minimal inhibitory concentration, Human Serum [1]: 2 µg/mL
MIC50 [2, 6]: 0.5 µg/mL
MIC100 [2, 6]: 1 µg/mL
MIC Range [2, 6]: 0.5 to 1 µg/mL
activity against S. maltophilia ([2]; Table 45 isolates): active
MBEC ([3]; MBEC assay format, summary statement, strain not stated there): 0.25 µg/mL
MBEC ([3]; P. aeruginosa ATCC 17647 mature biofilm, tryptic soy broth with 2% glucose): 0.25 µg/mL
FIC Index ([4]; Chp peptide combined with Amikacin, P. aeruginosa CFS-1292): 0.5
FIC Index ([4]; Chp peptide combined with Azithromycin, P. aeruginosa CFS-1292): 0.375
FIC Index ([4]; Chp peptide combined with Aztreonam, P. aeruginosa CFS-1292): 0.375
FIC Index ([4]; Chp peptide combined with Ciprofloxacin, P. aeruginosa CFS-1292): 0.75
FIC Index ([4]; Chp peptide combined with Colistin, P. aeruginosa CFS-1292): 0.375
FIC Index ([4]; Chp peptide combined with Gentamicin, P. aeruginosa CFS-1292): 0.5625
FIC Index ([4]; Chp peptide combined with Imipenem, P. aeruginosa CFS-1292): 0.375
FIC Index ([4]; Chp peptide combined with Levofloxacin, P. aeruginosa CFS-1292): 0.5
FIC Index ([4]; Chp peptide combined with Meropenem, P. aeruginosa CFS-1292): 0.375
FIC Index ([4]; Chp peptide combined with Piperacillin, P. aeruginosa CFS-1292): 1
FIC Index ([4]; Chp peptide combined with Tobramycin, P. aeruginosa CFS-1292): 0.375
interaction between the Chp peptide and the antibiotic (FICI values) ([4]; P. aeruginosa CFS-1292, range of antibiotics): either synergy (i.e., ≤0.5) or strongly additive (i.e., >0.5-1)
FICI ([4]; combination with Amikacin): 0.500
FICI ([4]; combination with Azithromycin): 0.156
FICI ([4]; combination with Aztreonam): 0.500
FICI ([4]; combination with Ciprofloxacin): 0.500
FICI ([4]; combination with Colistin): 0.375
FICI ([4]; combination with Fosfomycin): 0.250
FICI ([4]; combination with Gentamicin): 0.281
FICI ([4]; combination with Imipenem): 0.188
FICI ([4]; combination with Piperacillin): 0.188
FICI ([4]; combination with Rifampicin): 0.563
FICI ([4]; combination with Tobramycin): 0.266
Chp peptide FIC ([4]; combined with Amikacin, P. aeruginosa CFS-1292): 0.25
Chp peptide MIC in checkerboard ([4]; combined with Amikacin): 0.25 µg/mL
Chp peptide FIC ([4]; combined with Azithromycin, P. aeruginosa CFS-1292): 0.125
Chp peptide MIC in checkerboard ([4]; combined with Azithromycin): 0.0625 µg/mL
Chp peptide FIC ([4]; combined with Aztreonam, P. aeruginosa CFS-1292): 0.125
Chp peptide MIC in checkerboard ([4]; combined with Aztreonam): 0.0625 µg/mL
Chp peptide FIC ([4]; combined with Ciprofloxacin, P. aeruginosa CFS-1292): 0.25
Chp peptide MIC in checkerboard ([4]; combined with Ciprofloxacin): 0.125 µg/mL
Chp peptide FIC ([4]; combined with Colistin, P. aeruginosa CFS-1292): 0.125
Chp peptide MIC in checkerboard ([4]; combined with Colistin): 0.0625 µg/mL
Chp peptide FIC ([4]; combined with Gentamicin, P. aeruginosa CFS-1292): 0.0625
Chp peptide MIC in checkerboard ([4]; combined with Gentamicin): 0.03125 µg/mL
Chp peptide FIC ([4]; combined with Imipenem, P. aeruginosa CFS-1292): 0.25
Chp peptide MIC in checkerboard ([4]; combined with Imipenem): 0.125 µg/mL
Chp peptide FIC ([4]; combined with Levofloxacin, P. aeruginosa CFS-1292): 0.25
Chp peptide MIC in checkerboard ([4]; combined with Levofloxacin): 0.0625 µg/mL
Chp peptide FIC ([4]; combined with Meropenem, P. aeruginosa CFS-1292): 0.125
Chp peptide MIC in checkerboard ([4]; combined with Meropenem): 0.0625 µg/mL
Chp peptide FIC ([4]; combined with Piperacillin, P. aeruginosa CFS-1292): 0.5
Chp peptide MIC in checkerboard ([4]; combined with Piperacillin): 0.25 µg/mL
Chp peptide FIC ([4]; combined with Tobramycin, P. aeruginosa CFS-1292): 0.125
Chp peptide MIC in checkerboard ([4]; combined with Tobramycin): 0.0625 µg/mL
FIC Index ([5]; Chp peptide + Amikacin): 0.281
FIC Index ([5]; Chp peptide + Azithromycin): 0.563
FIC Index ([5]; Chp peptide + Aztreonam): 0.313
FIC Index ([5]; Chp peptide + Ciprofloxacin): 0.531
FIC Index ([5]; Chp peptide + Colistin): 0.375
FIC Index ([5]; Chp peptide + Gentamicin): 0.313
FIC Index ([5]; Chp peptide + Imipenem): 0.531
FIC Index ([5]; Chp peptide + Levofloxacin): 0.5
FIC Index ([5]; Chp peptide + Meropenem): 0.375
